Experimental data from article PMC5218480 (PLoS ONE, 2017).

Tested on: MV-4-11 cells
Test: Gene expression microarray analysis (Affymetrix PrimeView) and GSEA
Assay type: cell-based, human
Set-up: RFU PODN (11730768_x_at) / Fold change /veh PODN (11730768_x_at) / RFU LINC00158 (11744669_a_at) / Fold change /veh LINC00158 (11744669_a_at) / RFU DUSP10 (11751237_a_at) / Fold change /veh DUSP10 (11751237_a_at) / RFU ID3 (11757404_x_at) / Fold change /veh ID3 (11757404_x_at) / RFU PLEKHG5 (11737974_s_at) / Fold change /veh PLEKHG5 (11737974_s_at) / RFU LRRC4B (11730491_at) / Fold change /veh LRRC4B (11730491_at) / RFU GIMAP4 (11747438_a_at) / Fold change /veh GIMAP4 (11747438_a_at) / RFU KRT8 (11758183_x_at) / Fold change /veh KRT8 (11758183_x_at) / RFU CNN1 (11734310_a_at) / Fold change /veh CNN1 (11734310_a_at) / RFU VPS37D (11726825_at) / Fold change /veh VPS37D (11726825_at) / RFU C10orf10 (11716522_x_at) / Fold change /veh C10orf10 (11716522_x_at) / RFU KIR2DL2 /// KIR2DL4 /// KIR2DL5A /// KIR2DL5B /// KIR2DS1 /// KIR2DS2 /// KIR2DS3 /// KIR2DS4 /// KIR3DL3 /// KIR3DL3 /// KIR3DS1 (11738374_at) / Fold change /veh KIR2DL2 /// KIR2DL4 /// KIR2DL5A /// KIR2DL5B /// KIR2DS1 /// KIR2DS2 /// KIR2DS3 /// KIR2DS4 /// KIR3DL3 /// KIR3DL3 /// KIR3DS1 (11738374_at) / RFU C1QL1 (11718748_at) / Fold change /veh C1QL1 (11718748_at) / RFU TMPRSS4 (11747572_a_at) / Fold change /veh TMPRSS4 (11747572_a_at) / RFU HAMP (11756126_x_at) / Fold change /veh HAMP (11756126_x_at) / RFU RNFT2 (11725882_a_at) / Fold change /veh RNFT2 (11725882_a_at) / RFU NR4A2 (11747474_a_at) / Fold change /veh NR4A2 (11747474_a_at) / RFU ABCC12 (11746883_a_at) / Fold change /veh ABCC12 (11746883_a_at) / RFU TMEM136 (11760407_x_at) / Fold change /veh TMEM136 (11760407_x_at) / RFU CLDN22 /// WWC2 (11732394_at) / Fold change /veh CLDN22 /// WWC2 (11732394_at) / RFU HLA-DPB1 (11760878_x_at) / Fold change /veh HLA-DPB1 (11760878_x_at) / RFU SPINT1 (11716480_a_at) / Fold change /veh SPINT1 (11716480_a_at) / RFU GAP43 (11754022_s_at) / Fold change /veh GAP43 (11754022_s_at) / RFU A4GNT (11735810_at) / Fold change /veh A4GNT (11735810_at) / RFU PRB3 (11715151_x_at) / Fold change /veh PRB3 (11715151_x_at) / RFU TUBB4B (11761932_at) / Fold change /veh TUBB4B (11761932_at) / RFU CAPN14 (11732068_a_at) / Fold change /veh CAPN14 (11732068_a_at) / RFU TMCC2 (11721928_a_at) / Fold change /veh TMCC2 (11721928_a_at) / RFU IRGQ (11745062_a_at) / Fold change /veh IRGQ (11745062_a_at) / RFU FAM174B (11720279_a_at) / Fold change /veh FAM174B (11720279_a_at) / RFU TMPRSS4 (11748680_a_at) / Fold change /veh TMPRSS4 (11748680_a_at) / RFU FAM212B (11763350_a_at) / Fold change /veh FAM212B (11763350_a_at) / RFU PLEKHG5 (11743358_a_at) / Fold change /veh PLEKHG5 (11743358_a_at) / RFU ZSCAN30 (11745921_a_at) / Fold change /veh ZSCAN30 (11745921_a_at) / RFU CMKLR1 (11741424_a_at) / Fold change /veh CMKLR1 (11741424_a_at) / RFU LOC101060620 /// MAPK8IP1 (11723275_at) / Fold change /veh LOC101060620 /// MAPK8IP1 (11723275_at) / RFU SPTSSB (11747773_x_at) / Fold change /veh SPTSSB (11747773_x_at) / RFU PRSS12 (11739890_at) / Fold change /veh PRSS12 (11739890_at) / RFU BIN1 (11741810_x_at) / Fold change /veh BIN1 (11741810_x_at) / RFU WNT11 (11732464_a_at) / Fold change /veh WNT11 (11732464_a_at) / RFU C10orf10 (11716521_a_at) / Fold change /veh C10orf10 (11716521_a_at) / RFU C5orf56 (11738089_at) / Fold change /veh C5orf56 (11738089_at) / RFU CYB561 (11721691_x_at) / Fold change /veh CYB561 (11721691_x_at) / RFU ANKRD19P (11752326_a_at) / Fold change /veh ANKRD19P (11752326_a_at) / RFU OR2T12 /// OR2T33 /// OR2T8 (11738714_s_at) / Fold change /veh OR2T12 /// OR2T33 /// OR2T8 (11738714_s_at) / RFU VCAN (11748164_a_at) / Fold change /veh VCAN (11748164_a_at) / RFU JSRP1 (11732532_at) / Fold change /veh JSRP1 (11732532_at) / RFU KRTAP10-11 (11738290_x_at) / Fold change /veh KRTAP10-11 (11738290_x_at) / RFU MYO3A (11730013_a_at) / Fold change /veh MYO3A (11730013_a_at) / RFU EBF3 (11725865_a_at) / Fold change /veh EBF3 (11725865_a_at) / RFU CAMK2N1 (11719241_x_at) / Fold change /veh CAMK2N1 (11719241_x_at) / RFU C5orf56 (11738088_a_at) / Fold change /veh C5orf56 (11738088_a_at) / RFU OLFML3 (11715873_a_at) / Fold change /veh OLFML3 (11715873_a_at) / RFU LOC100653217 /// NTM (11731650_a_at) / Fold change /veh LOC100653217 /// NTM (11731650_a_at) / RFU MAPK11 (11762145_a_at) / Fold change /veh MAPK11 (11762145_a_at) / RFU FIZ1 (11724087_x_at) / Fold change /veh FIZ1 (11724087_x_at) / RFU OASL (11726364_x_at) / Fold change /veh OASL (11726364_x_at) / RFU SOX15 (11748057_x_at) / Fold change /veh SOX15 (11748057_x_at) / RFU CD79A (11719716_a_at) / Fold change /veh CD79A (11719716_a_at) / RFU HIST1H1D (11736915_at) / Fold change /veh HIST1H1D (11736915_at) / RFU CASKIN2 (11723855_a_at) / Fold change /veh CASKIN2 (11723855_a_at) / RFU LOC730098 (11760151_x_at) / Fold change /veh LOC730098 (11760151_x_at) / RFU OR4N2 (11742367_at) / Fold change /veh OR4N2 (11742367_at) / RFU PRRT2 (11749266_a_at) / Fold change /veh PRRT2 (11749266_a_at) / RFU SNX32 (11753110_a_at) / Fold change /veh SNX32 (11753110_a_at) / RFU CDHR5 (11726645_a_at) / Fold change /veh CDHR5 (11726645_a_at) / RFU RCAN1 (11760418_a_at) / Fold change /veh RCAN1 (11760418_a_at) / RFU FAM167A (11723789_a_at) / Fold change /veh FAM167A (11723789_a_at) / RFU FAM26E (11764081_at) / Fold change /veh FAM26E (11764081_at) / RFU ISYNA1 (11749810_s_at) / Fold change /veh ISYNA1 (11749810_s_at) / RFU ACY1 (11761880_at) / Fold change /veh ACY1 (11761880_at) / RFU 11764098_at / Fold change /veh 11764098_at / RFU SAMD14 (11745864_x_at) / Fold change /veh SAMD14 (11745864_x_at) / RFU NPB (11741838_a_at) / Fold change /veh NPB (11741838_a_at) / RFU TMPRSS6 (11731388_a_at) / Fold change /veh TMPRSS6 (11731388_a_at) / RFU KRTAP10-2 (11738614_at) / Fold change /veh KRTAP10-2 (11738614_at) / RFU ARHGAP8 /// PRR5-ARHGAP8 (11727945_x_at) / Fold change /veh ARHGAP8 /// PRR5-ARHGAP8 (11727945_x_at) / RFU KRTAP5-7 /// NADSYN1 (11734609_at) / Fold change /veh KRTAP5-7 /// NADSYN1 (11734609_at) / RFU RASL12 (11751679_a_at) / Fold change /veh RASL12 (11751679_a_at) / RFU CDKN2B (11736163_a_at) / Fold change /veh CDKN2B (11736163_a_at) / RFU PRF1 (11729649_at) / Fold change /veh PRF1 (11729649_at) / RFU, ZNF638 /// ZNF638-IT1 / Fold change vs veh, ZNF638 /// ZNF638-IT1 / RFU, PANK3 / Fold change vs veh, PANK3 / RFU, SH3YL1 / Fold change vs veh, SH3YL1 / RFU, ZEB2 / Fold change vs veh, ZEB2 / RFU, NRIP1 / Fold change vs veh, NRIP1 / RFU, PTTG1IP / Fold change vs veh, PTTG1IP / RFU, CAPN2 / Fold change vs veh, CAPN2 / RFU, MED14 / Fold change vs veh, MED14 / RFU, SNORA58 / Fold change vs veh, SNORA58 / RFU, C1orf63 / Fold change vs veh, C1orf63 / RFU, LRRFIP1 / Fold change vs veh, LRRFIP1 / RFU, NDUFAF7 / Fold change vs veh, NDUFAF7 / RFU, SLC12A2 / Fold change vs veh, SLC12A2 / RFU, IBTK / Fold change vs veh, IBTK / RFU, ESF1 / Fold change vs veh, ESF1 / Fold change vs veh, TMEM50B / RFU, TAOK1 / Fold change vs veh, TAOK1 / RFU, ACBD3 / Fold change vs veh, ACBD3 / RFU, TMA16 / Fold change vs veh, TMA16 / RFU, RWDD3 / Fold change vs veh, RWDD3 / RFU, BCAT1 / Fold change vs veh, BCAT1 / RFU, EDEM3 / Fold change vs veh, EDEM3 / RFU, TMEM33 / Fold change vs veh, TMEM33 / RFU, WDR75 / Fold change vs veh, WDR75 / RFU, AHCTF1 / Fold change vs veh, AHCTF1 / RFU, TFRC / Fold change vs veh, TFRC / RFU, ZDHHC17 / Fold change vs veh, ZDHHC17 / RFU, NOM1 / Fold change vs veh, NOM1 / RFU, ARL8B / Fold change vs veh, ARL8B / RFU, ZBTB11 / Fold change vs veh, ZBTB11 / RFU, TAMM41 / Fold change vs veh, TAMM41 / RFU, KIAA1704 /// LOC100996395 / Fold change vs veh, KIAA1704 /// LOC100996395 / RFU, ING1 / Fold change vs veh, ING1 / RFU, TRMT61B / Fold change vs veh, TRMT61B / RFU, FUBP3 / Fold change vs veh, FUBP3 / RFU, TP53 / Fold change vs veh, TP53 / RFU, TNKS2 / Fold change vs veh, TNKS2 / RFU, ZFP14 / Fold change vs veh, ZFP14 / RFU, ACTR2 / Fold change vs veh, ACTR2 / RFU, PPP3R1 / Fold change vs veh, PPP3R1 / RFU, PIK3R1 / Fold change vs veh, PIK3R1 / RFU, HNRNPA1 / Fold change vs veh, HNRNPA1 / RFU, RNF170 / Fold change vs veh, RNF170 / RFU, ZNF28 / Fold change vs veh, ZNF28 / RFU, RNGTT / Fold change vs veh, RNGTT / RFU, OGT / Fold change vs veh, OGT / RFU, BRD1 / Fold change vs veh, BRD1 / RFU, MARS / Fold change vs veh, MARS / RFU, ZNF655 / Fold change vs veh, ZNF655 / RFU, FAHD1 / Fold change vs veh, FAHD1 / RFU, BDP1 / Fold change vs veh, BDP1 / RFU, LRRCC1 / Fold change vs veh, LRRCC1 / RFU, ARID1A / Fold change vs veh, ARID1A / RFU, ZNF146 / Fold change vs veh, ZNF146 / RFU, ZNF330 / Fold change vs veh, ZNF330 / RFU, GPN3 / Fold change vs veh, GPN3 / RFU, C9orf123 / Fold change vs veh, C9orf123 / RFU, N4BP2L2 / Fold change vs veh, N4BP2L2 / RFU, ARFIP1 / Fold change vs veh, ARFIP1 / RFU, FAM179B / Fold change vs veh, FAM179B / RFU, BCL10 / Fold change vs veh, BCL10 / RFU, UHRF1BP1L / Fold change vs veh, UHRF1BP1L / RFU, BET1 / Fold change vs veh, BET1 / RFU, CNOT2 / Fold change vs veh, CNOT2 / RFU, ZNF268 / Fold change vs veh, ZNF268 / Fold change vs veh, ZNF507 / RFU, DGCR2 / Fold change vs veh, DGCR2 / RFU, WDSUB1 / Fold change vs veh, WDSUB1 / Fold change vs veh, HSP90B1 /// MIR3652 / RFU, ADSS / Fold change vs veh, ADSS / RFU, GK / Fold change vs veh, GK / RFU, ZNF148 / Fold change vs veh, ZNF148 / RFU, TAF9 / Fold change vs veh, TAF9 / RFU, SLC1A5 / Fold change vs veh, SLC1A5 / RFU, SLMO2 / Fold change vs veh, SLMO2 / RFU, ABCC4 / Fold change vs veh, ABCC4 / RFU, LOC101060439 /// RAP1B / Fold change vs veh, LOC101060439 /// RAP1B / RFU, RFX7 / Fold change vs veh, RFX7 / RFU, GTPBP10 / Fold change vs veh, GTPBP10 / RFU, CNEP1R1 / Fold change vs veh, CNEP1R1 / RFU, BIVM-ERCC5 /// ERCC5 / Fold change vs veh, BIVM-ERCC5 /// ERCC5 / RFU, ILF3 / Fold change vs veh, ILF3 / RFU 11762660_at / Fold change /veh 11762660_at / RFU VCAN (11757783_s_at) / Fold change /veh VCAN (11757783_s_at) / RFU DDX43 (11728927_at) / Fold change /veh DDX43 (11728927_at) / RFU KRT8 (11758188_x_at) / Fold change /veh KRT8 (11758188_x_at) / RFU NKD1 (11759106_at) / Fold change /veh NKD1 (11759106_at) / RFU SRD5A1 (11742802_a_at) / Fold change /veh SRD5A1 (11742802_a_at) / RFU TPSAB1 /// TPSB2 (11721975_s_at) / Fold change /veh TPSAB1 /// TPSB2 (11721975_s_at) / RFU GSTM3 (11746129_a_at) / Fold change /veh GSTM3 (11746129_a_at) / RFU IL23R (11737362_x_at) / Fold change /veh IL23R (11737362_x_at) / RFU TMEM51 (11727254_a_at) / Fold change /veh TMEM51 (11727254_a_at) / RFU PIWIL2 (11732686_x_at) / Fold change /veh PIWIL2 (11732686_x_at) / RFU ORM1 (11744905_x_at) / Fold change /veh ORM1 (11744905_x_at) / RFU CCDC152 (11743942_at) / Fold change /veh CCDC152 (11743942_at) / RFU ECM1 (11717891_a_at) / Fold change /veh ECM1 (11717891_a_at) / RFU IL23R (11748794_a_at) / Fold change /veh IL23R (11748794_a_at) / RFU TNFAIP8L3 (11732012_x_at) / Fold change /veh TNFAIP8L3 (11732012_x_at) / RFU MBOAT4 (11741988_at) / Fold change /veh MBOAT4 (11741988_at) / RFU 11764193_at / Fold change /veh 11764193_at / RFU TMEM53 (11763286_at) / Fold change /veh TMEM53 (11763286_at) / RFU MAGEB2 (11727129_at) / Fold change /veh MAGEB2 (11727129_at) / RFU TMEM200A (11744735_a_at) / Fold change /veh TMEM200A (11744735_a_at) / RFU CCDC152 (11751479_a_at) / Fold change /veh CCDC152 (11751479_a_at) / RFU FAM211A (11726209_a_at) / Fold change /veh FAM211A (11726209_a_at) / RFU RGS16 (11746705_a_at) / Fold change /veh RGS16 (11746705_a_at) / RFU VCAN (11755009_s_at) / Fold change /veh VCAN (11755009_s_at) / RFU RHOB (11743442_s_at) / Fold change /veh RHOB (11743442_s_at) / RFU RGS16 (11720943_a_at) / Fold change /veh RGS16 (11720943_a_at) / RFU RGS16 (11720944_at) / Fold change /veh RGS16 (11720944_at) / RFU, VPS4B / Fold change vs veh, VPS4B / RFU, CREB1 / Fold change vs veh, CREB1 / RFU, DNAJC13 / Fold change vs veh, DNAJC13 / RFU, GNAQ / Fold change vs veh, GNAQ / RFU, CDK5R1 / Fold change vs veh, CDK5R1 / RFU, ZRANB3 / Fold change vs veh, ZRANB3 / RFU, CUL4A / Fold change vs veh, CUL4A / RFU, CCNY / Fold change vs veh, CCNY / RFU, UFL1 / Fold change vs veh, UFL1 / RFU, COG3 / Fold change vs veh, COG3 / RFU, DIAPH2 / Fold change vs veh, DIAPH2 / RFU, SKA2 / Fold change vs veh, SKA2 / RFU, AFF3 / Fold change vs veh, AFF3 / RFU, LMF1 / Fold change vs veh, LMF1 / RFU, IPO11 / Fold change vs veh, IPO11 / RFU, DFFB / Fold change vs veh, DFFB / RFU, FOXP1 / Fold change vs veh, FOXP1 / RFU, CARD8 / Fold change vs veh, CARD8 / RFU, STRN3 / Fold change vs veh, STRN3 / RFU, ADK / Fold change vs veh, ADK / RFU, RASSF2 / Fold change vs veh, RASSF2 / RFU, WIPF1 / Fold change vs veh, WIPF1 / RFU, LARP1B / Fold change vs veh, LARP1B / RFU, RASA1 / Fold change vs veh, RASA1 / RFU, RB1 / Fold change vs veh, RB1 / RFU, PPFIA1 / Fold change vs veh, PPFIA1 / RFU, MAT2A / Fold change vs veh, MAT2A / RFU, CCT5 / Fold change vs veh, CCT5 / RFU, WDR92 / Fold change vs veh, WDR92 / RFU, CUX1 / Fold change vs veh, CUX1 / RFU, TTC7A / Fold change vs veh, TTC7A / RFU, TMEM135 / Fold change vs veh, TMEM135 / RFU, DEPTOR / Fold change vs veh, DEPTOR / RFU, CPM / Fold change vs veh, CPM / RFU, DNAJB6 / Fold change vs veh, DNAJB6 / RFU, CACNA2D3 / Fold change vs veh, CACNA2D3 / RFU, DTX4 / Fold change vs veh, DTX4 / RFU, TFCP2 / Fold change vs veh, TFCP2 / RFU, GMCL1 /// GMCL1P1 / Fold change vs veh, GMCL1 /// GMCL1P1 / RFU, AEBP2 / Fold change vs veh, AEBP2 / RFU, SNHG1 /// SNORD22 /// SNORD25 /// SNORD26 /// SNORD27 /// SNORD28 /// SNORD29 /// SNORD31 / Fold change vs veh, SNHG1 /// SNORD22 /// SNORD25 /// SNORD26 /// SNORD27 /// SNORD28 /// SNORD29 /// SNORD31 / Fold change (Aza/veh), C12orf56 (ProbeSet 11735607_a_at) / Fold change (ACY-1035/veh), C12orf56 (ProbeSet 11735607_a_at) / Fold change (Aza/veh), FGFR1OP (ProbeSet 11751329_s_at) / Fold change (ACY-1035/veh), FGFR1OP (ProbeSet 11751329_s_at) / Fold change (Aza/veh), VPS36 (ProbeSet 11739960_a_at) / Fold change (ACY-1035/veh), VPS36 (ProbeSet 11739960_a_at) / RFU SYPL1 (11715823_x_at) / Fold change /veh SYPL1 (11715823_x_at) / RFU IGFBP7 (11715501_s_at) / Fold change /veh IGFBP7 (11715501_s_at) / RFU REEP3 (11722064_at) / Fold change /veh REEP3 (11722064_at) / RFU IGLL1 (11728026_x_at) / Fold change /veh IGLL1 (11728026_x_at): dose or concentration left out as unconfirmed
Conditions: MV-4-11 cells, 48 hours

In the case of `Nc1ncn([C@@H]2O[C@H](CO)[C@@H](O)[C@H]2O)c(=O)n1` [azacitidine], the “RFU TMCC2 (11721928_a_at)” value is reported as 12.72 RFU.
